Results taken from PubChem BioAssay AID588407 (The Scripps Research Institute Molecular Screening Center, 2011).
pEC50: −log10 of the molar value. Values joined by “and” are separate entries in the source; they are usually repeats but may differ in a detail not shown here. Equal values may be shown once. Active and inactive are the calls of the source. No rule for the calls is given here.

Biological target: Mu-type opioid receptor (Homo sapiens) + Delta-type opioid receptor (Homo sapiens) (UniProt P35372+P41143)
Assay: agonists of MOR-DOR heterodimerization, dose response, cell-based, luminescence (AID 588407);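 also: potency of agonists raising the heterodimer signal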
Conditions: cells

Sequence of Mu-type opioid receptor (Homo sapiens) + Delta-type opioid receptor (Homo sapiens) (P35372 whole entry, looked up): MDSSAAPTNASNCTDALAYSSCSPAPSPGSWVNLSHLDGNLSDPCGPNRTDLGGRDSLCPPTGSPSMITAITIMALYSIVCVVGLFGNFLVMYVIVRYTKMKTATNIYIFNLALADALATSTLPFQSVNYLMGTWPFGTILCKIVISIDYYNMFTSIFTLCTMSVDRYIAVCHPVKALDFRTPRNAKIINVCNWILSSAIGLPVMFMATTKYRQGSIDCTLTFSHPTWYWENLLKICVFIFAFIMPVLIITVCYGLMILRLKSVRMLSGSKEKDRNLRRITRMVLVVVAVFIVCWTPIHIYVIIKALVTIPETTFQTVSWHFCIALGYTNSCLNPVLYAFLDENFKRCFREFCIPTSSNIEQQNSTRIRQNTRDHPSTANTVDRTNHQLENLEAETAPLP
Sequence of Mu-type opioid receptor (Homo sapiens) + Delta-type opioid receptor (Homo sapiens) (P41143 whole entry, looked up): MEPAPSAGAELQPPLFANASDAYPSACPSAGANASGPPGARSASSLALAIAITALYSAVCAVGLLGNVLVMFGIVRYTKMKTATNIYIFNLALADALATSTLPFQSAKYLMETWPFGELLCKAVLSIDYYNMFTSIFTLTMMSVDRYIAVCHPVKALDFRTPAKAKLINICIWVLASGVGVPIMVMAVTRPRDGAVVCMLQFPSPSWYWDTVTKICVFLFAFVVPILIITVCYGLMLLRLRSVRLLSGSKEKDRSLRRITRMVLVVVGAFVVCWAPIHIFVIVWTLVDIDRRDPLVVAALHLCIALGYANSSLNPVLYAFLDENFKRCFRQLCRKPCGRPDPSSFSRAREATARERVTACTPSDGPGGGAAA

SMILES | EC50 | pEC50
O=C(Nc1ccccc1)c1ccc(NC2CCCCC2)c(S(=O)(=O)N2CCOCC2)c1 | inactive | –
CN(C)C(CNC(=S)Nc1cccc(Cl)c1)c1ccccc1 (stereo not drawn) | – | 6.43
Cc1ccc(NC(=O)c2ncn(CCCN[C@H](C)c3cccc4ccccc34)n2)cc1C | – | 5.01
CN(C)CCCN(C(=O)c1ccc(S(=O)(=O)N2CCc3ccccc3C2)cc1)c1nc2c(F)cc(F)cc2s1 | – | 6.07
Cc1cc(=O)oc2cc(NC(=O)C3COc4ccccc4O3)ccc12 (stereo not drawn) | inactive | –
Cc1ccc2c(C)c(C(=O)N(Cc3cccs3)C3CCS(=O)(=O)C3)oc2c1 (stereo not drawn) | – | 5.15
COC(=O)C1=C(C)N(CCCC(=O)O)C(=O)NC1c1ccccc1OS(=O)(=O)c1ccccc1[N+](=O)[O-] (stereo not drawn) | – | 5.06
CCOC(=O)C1(CC2CCCCO2)CCN(Cc2ccc(OC)cc2F)CC1 (stereo not drawn) | inactive | –
Cc1ccccc1N1CC(O)(c2ccccc2)[N+]2=C1SCC2 (stereo not drawn) | – | 5.67
CCOC(=O)C1(CC2CCCCO2)CCN(Cc2c(C)cc(C)cc2-n2cccn2)CC1 (stereo not drawn) | – | 6.28
Cc1ccccc1OCC(O)Cn1c(=N)n(Cc2ccccc2)c2ccccc21 (stereo not drawn) | inactive | –
CCC(=O)C(CCN1CCOCC1)(c1ccccc1)c1ccccc1 | – | 6.01
Cc1ccccc1NC(=S)NCC(c1cccnc1)N(C)C (stereo not drawn) | – | 5.81
CCC(=O)OC1(c2cccc(C)c2)CC(C)N(C)CC1C (stereo not drawn) | inactive | –
COc1ccc(C(CNC(=O)c2ccc3c(c2)CCC3)N(C)C)cc1 (stereo not drawn) | – | 7.34
OC(CN1CCN(C(c2ccccc2)c2ccccc2)CC1)c1ccccc1 (stereo not drawn) | inactive | –
CC1[C@H]2Cc3ccc(O)cc3[C@]1(C)CCN2C (stereo partly drawn) | inactive | –
CCOC(=O)C1(CCOc2ccccc2)CCN(Cc2ccc(C)s2)CC1 | inactive | –
CCC1(C)CC(CCNCc2ccc(N(C)C)cc2)(c2ccc(F)cc2)CCO1 (stereo not drawn) | – | 5.54
COc1ccc(CNCCc2c[nH]c3ccccc23)c(OC)c1C | inactive | –
Cc1cc(N2CCN(C)CC2)ccc1NC(=O)c1ccc(-c2ccc(Cl)cc2)o1 | inactive | –
CCc1ccc(NC(=O)Nc2ccc3c(c2)N(C)C(=O)CS3)cc1 | – | 5.03
CCc1ccc2nc(N(CCCN(C)C)C(=O)c3ccc(S(=O)(=O)N4CCc5ccccc5C4)cc3)sc2c1 | inactive | –
O=c1c2ccc(Cl)cc2[nH]c(=S)n1Cc1cccnc1 | – | 5.07
CCOc1ccc(S(=O)(=O)Nc2cccc(C(=O)NCC(c3ccccc3)N(C)C)c2)cc1 (stereo not drawn) | – | 5.11
CC(C)n1ncc2c(C(=O)Nc3cccc(C#N)c3)cc(C3CC3)nc21 | – | 5.44

SMILES | EC50 | pEC50
Nc1nonc1C(=O)NCCNCc1c(OCc2ccccc2F)ccc2ccccc12 | inactive | –
CCOC(=O)C1(CC2CCCCO2)CCN(Cc2nc(-c3cccs3)oc2C)CC1 (stereo not drawn) | inactive | –
COc1ccc(C(CNC(=O)C(Cc2ccccc2)NC(N)=O)N(C)C)cc1 (stereo not drawn) | inactive | –
CCc1ccc(Nc2n[n+](-c3ccccc3)c(-c3c(Cl)cccc3Cl)s2)cc1 | – | 5.04
Cc1ccccc1Cn1c(O)c(N=NC(=S)Nc2ccccc2F)c2ccccc21 | > 92.5 µM (inactive) | –
CCN1CCN(c2ccc([N+](=O)[O-])c(Sc3nc4ccccc4[nH]3)c2)CC1 | – | 5.33
CCOC(=O)C1(Cc2ccccc2)CCN(Cc2cccn2-c2nccs2)CC1 | inactive | –
COc1ccc(C(CNC(=O)CCOc2ccccc2)N(C)C)cc1 (stereo not drawn) | inactive | –
CN(C)CCCN(C(=O)c1ccc(S(=O)(=O)N(C)Cc2ccccc2)cc1)c1nc2c(F)cccc2s1 | – | 5.30
CN(C)C(CNC(=O)c1ccc(C(F)(F)F)cc1)c1ccco1 (stereo not drawn) | – | 5.11
Cc1ccc(C2(O)CN(c3ccccc3)C3=[N+]2CCS3)cc1 (stereo not drawn) | – | 5.53
O=C(COc1ccc(/C=N/NC(=O)c2cc3ccccc3o2)cc1Br)Nc1ccccc1 | – | 5.01
CCCCCCCCCCOC(=O)Cn1c(COc2ccccc2C)[n+](C)c2ccccc21 | inactive | –
CN1C(CC(=O)Nc2ccc(Br)cc2)c2ccccc2CC1(C)C (stereo not drawn) | – | 5.03
Oc1ccc(Oc2ccc3c(C(F)(F)F)cc(C(F)(F)F)nc3n2)cc1 | inactive | –
C/C(=N/Nc1ccnc2cc(Cl)ccc12)c1ccc(N)cc1 | inactive | –
CCOC(=O)C1(CC2CC2)CCN(Cc2cnc(-c3ccccc3C)nc2)CC1 | inactive | –
COc1ccc(C2Nc3ccccc3C(=O)N2c2ccc(F)cc2)cc1CSc1ccccn1 (stereo not drawn) | inactive | –
CCc1ccc(NC(=O)N(CCCN2CCOCC2)Cc2cccs2)cc1 | inactive | –
CC1(NC(=O)CC(c2ccccc2)(c2ccccc2)c2ccccc2)CCN(CCCc2ccccc2)C1=O (stereo not drawn) | – | 6.05
COc1cc(C2C(C#N)=C(N)N(c3sc4c(c3C#N)CCCC4)C3=C2C(=O)CC(C)(C)C3)cc(OC)c1OC (stereo not drawn) | inactive | –
COc1ccc(C(CNc2ncnc3sc(C)c(C)c23)N(C)C)cc1 (stereo not drawn) | – | 5.17
CN1CCN(c2ccc(NC(=O)c3ccc(-c4ccc(Br)cc4)o3)cc2)CC1 | – | 5.72
Cc1cccc(NC(=S)NCC(c2cccnc2)N(C)C)c1C (stereo not drawn) | – | 6.52
CC(=O)Nc1ccc(CN2CCCC(C(=O)c3cccc(C(F)(F)F)c3)C2)cc1 (stereo not drawn) | – | 5.03
CN(C)S(=O)(=O)c1ccc(-c2csc(N/N=C/c3ccc(O)cc3)n2)cc1 | – | 5.00

SMILES | EC50 | pEC50
CCc1ccc2nc(N(CCCN(C)C)C(=O)c3ccc(S(=O)(=O)N(C)C4CCCCC4)cc3)sc2c1 | inactive | –
COc1ccc2c(Cl)c(-c3nnc(SCC(=O)c4ccccc4)n3C)sc2c1 | – | 6.03
COc1ccc(-c2nn(-c3ccccc3C)cc2CNCc2cccnc2)cc1F | – | 5.11
OCC1(CCc2ccccc2)CCN(Cc2cccn2-c2cccnc2)CC1 | – | 5.33
CCOC(=O)C1(Cc2ccccc2)CCN(Cc2cccn2-c2cccnc2)CC1 | inactive | –
CCOC(=O)C1(CCc2ccccc2)CCN(Cc2ccc(NC(C)=O)cc2)CC1 | – | 6.64
Cc1ccc(C)c(-n2cc(CNC(C)Cn3cncn3)c(-c3ccccc3)n2)c1 (stereo not drawn) | inactive | –
CC(=O)Nc1ccc(S(=O)(=O)NC2=C(N3CCN(Cc4ccccc4)CC3)C(=O)c3ccccc3C2=O)cc1 | – | 5.86 and 5.79
CN1CCN(c2ccc(NC(=O)c3ccc(-c4ccccc4F)o3)cc2)CC1 | – | 5.49
CN1CCN(Cc2nc3ccccc3c(=O)n2Cc2nc(-c3ccc4ccccc4c3)cs2)CC1 | > 10.3 µM (inactive) | –
CN(C)C(CNC(=O)C1CC(=O)N(Cc2ccccc2)C1)c1ccccc1 (stereo not drawn) | inactive | –
CCn1cc(CNCc2cn(-c3ccccc3C)nc2-c2ccc(OC)c(F)c2)cn1 | – | 5.76
COc1ccc(C(CNC(=O)c2ccc(S(=O)(=O)N(C)C)cc2)N(C)C)cc1 (stereo not drawn) | – | 5.34
CCOC(=O)C1(c2ccccc2)CCN(CCC(=O)Nc2ccc(F)cc2)CC1 | – | 5.63
CCOC(=O)C1(CCc2ccccc2)CCN(Cc2ccco2)CC1 | inactive | –
CN(C)c1ccc(C(CNC(=O)Cc2cccc3ccccc23)N(C)C)cc1 (stereo not drawn) | inactive | –
Cc1ccc(-n2cc(CNC(C)c3cnn(C)c3)c(-c3ccc(F)cc3)n2)cc1 (stereo not drawn) | – | 6.82
Cc1ccc(Cn2c(=N)n(CC(O)COc3ccccc3)c3ccccc32)cc1 (stereo not drawn) | inactive | –
O=C(OC1C2CCC1C1CN(CCc3ccccc3)CC12)c1ccccc1 (stereo not drawn) | inactive | –
Cc1nc(N2CCN(c3ccccn3)CC2)c2c(C)c(C(=O)N3CCN(c4ccc(F)cc4)CC3)sc2n1 | – | 5.66
CC(=O)CSc1ccc(-c2nc3cc(C)c(C)cc3[nH]2)cn1 | inactive | –
COc1cc(C(=O)OC(C)C(=O)NCC2CCCCC2)cc(NC(=O)c2ccco2)c1OC (stereo not drawn) | > 92.5 µM (inactive) | –
c1ccc(C2(N3CCCCC3)CCCCC2)cc1 | – | 6.02
CN1CCN(c2ccc(NC(=O)c3ccc(-c4cccc([N+](=O)[O-])c4)o3)cc2)CC1 | inactive | –
CN1C2C=C(N(CCc3ccccc3)C(=O)c3ccc(Cl)cc3)CC1CC2 (stereo not drawn) | inactive | –
COC(=O)C1=CO[C@@H](C)[C@@H]2CN(CCc3c[nH]c4ccccc34)CC[C@H]12 | – | 5.39

SMILES | EC50 | pEC50
CCN(c1nc(N)c(C(=O)N=C(N)N)nc1Cl)C(C)C | – | 5.02
CC(CC(=O)N(CCC1=CCCCC1)c1c(N)n(Cc2ccccc2)c(=O)[nH]c1=O)c1ccccc1 (stereo not drawn) | > 92.5 µM (inactive) | –
CN(C)C(CNC(=O)c1ccc(Br)cc1)c1ccco1 (stereo not drawn) | inactive | –
COc1ccc(-n2c3c(cc(C(=O)NNc4ccccc4C)c2=O)C(=O)CC(C)(C)C3)cc1 | – | 5.59
OCC1(CC2CCCCO2)CCN(Cc2ccccc2-c2ccco2)CC1 (stereo not drawn) | – | 5.32
CCCc1nc2c(=O)n(C)c(=O)nc-2n(C)n1 | > 92.5 µM (inactive) | –
COCC1CCN(Cc2cn(-c3ccccc3F)nc2-c2cc(C)sc2C)CC1 | inactive | –
Cc1cccc(NC(=S)NC(=O)CCc2ccccc2)c1 | > 92.5 µM (inactive) | –
CCC(=O)OC(Cc1ccccc1)(c1ccccc1)[C@H](C)CN(C)C (stereo partly drawn) | – | 5.00
COc1ccc(C2C(C#N)=C(N)N(c3sc4c(c3C#N)CCCC4)C3=C2C(=O)CC(C)(C)C3)cc1 (stereo not drawn) | – | 5.34
O=C(c1sc2ccccc2c1Cl)N(Cc1ccco1)C1CCS(=O)(=O)C1 (stereo not drawn) | inactive | –
CCOC(=O)C1(CCOC)CCN(Cc2ccccc2-c2ccco2)CC1 | – | 5.50
COC(=O)C(Cc1cccc(C)n1)(c1ccccc1)c1ccccc1 | – | 5.41
COCCCn1c(N)c(-c2nc3ccccc3n2C)c2nc3ccccc3nc21 | – | 5.38
CC(=O)NC(CC(=O)NCC(c1ccco1)N(C)C)c1ccccc1 (stereo not drawn) | – | 5.97
Cc1ccc2nc(N(CCCN(C)C)C(=O)c3ccc(S(=O)(=O)N4CCc5ccccc5C4)cc3)sc2c1 | – | 5.05
Cc1occc1C(=O)N/N=C/c1ccc(-c2ccccc2)cc1 | > 92.4 µM (inactive) | –
CN(C)C(CNC(=O)c1cnc(Cl)c(Cl)c1)c1ccccc1 (stereo not drawn) | – | 6.26
Cc1ccc(CSCC(=O)N/N=C/c2sccc2C)cc1 | – | 5.22
Cc1cc(Cl)ccc1OCC(=O)N[C@@H](Cc1ccccc1)c1nc2ccccc2[nH]1 | inactive | –
CCOC(=O)c1c(C)[nH]c(C(=O)OC/C(O)=C(\C#N)c2nc3ccccc3[nH]2)c1C | > 92.5 µM (inactive) | –
CN(C)C(CNC(=O)CSC(=S)N1CCCC1)c1ccccc1 (stereo not drawn) | – | 6.01
CN(C)C(CNC(=S)Nc1ccccc1)c1cccnc1 (stereo not drawn) | – | 5.46
COc1ccc(-c2csc(N(CCCN(C)C)C(=O)c3cccs3)n2)cc1 | inactive | –
COc1ccc(C(CNC(=O)CSc2ccccc2C)N(C)C)cc1 (stereo not drawn) | – | 5.34
